This is an account of results in patent US20250282818A1, “SYRBACTIN MACROLACTAMS AND UNNATURAL ANALOGS AS PROTEASOME INHIBITORS FOR THE TREATMENT OF MULTIPLE MYELOMA AND CHEMOENZYMATIC SYNTHESIS THEREOF” (UNIVERSITY OF FLORIDA RESEARCH FOUNDATION,INCORPORATED, priority 2022, published 2025).

The structures appear in SMILES notation. “Also recorded” adds a separate entry of the source.

In series [1] the test system is RPMI 8226 cells. In words: RPMI 8226 cytotoxicity EC50 measurements (WST-1). It counts as cell-based, human. The note with it: RPMI 8226, 48 hours. How it is done:
RPMI 8226 cells were seeded in a 96-well plate (20,000 cells/well) in cell culture media supplemented with indicated compounds (1,000× stock in DMSO) or DMSO and cultured for 48 hours. Toxicity was determined using the WST-1 assay (Roche) according to the protocol of the manufacturer. (n=3)
Cytotoxicity of phenyl cepafungin (50) and hybrid analog (S39) in RPMI 8226 RPMI 8226 cells were seeded in a 96-well plate (20,000 cells/well) in cell culture media supplemented with indicated compounds (1,000× stock in DMSO) or DMSO and cultured for 48 hours. Toxicity was determined using the WST-1 assay (Roche) according to the protocol of the manufacturer. (n=3)

A further series deals with T1, proteasome subunit β5 (Homo sapiens, UniProt P28074).
T1 construct: Cells were then collected and lysed; endogenous in cells; host or cells: RPMI 8226
The series can be described thus: Proteasome inhibition IC50 measurements in RPMI 8226 cells, substrate Suc-LLVY-AMC (β5). It counts as cell-based. To be noted: β5, RPMI 8226 cells. The source says:
Our preliminary series of analogs (FIG. 3), including the natural product glidobactin A (2), were synthesized by largely the same route (FIG. 2).^13 Desoxycepafungin (38) was synthesized from Boc-Lys(Boc)-OH to assess the role of the macrocycle hydroxylation in 1 towards proteasome inhibition. The saturated cepafungin analog 39 was designed to address the possible role of rigidity in the tail fragment induced by the diene seen in many natural cepafungins and glidobactins. An analog bearing unsaturation at its macrocyclic lysine was envisioned to provide a head-to-head comparison between the cepafungin and syringolin A (4) macrocyclic core. […] Proteasome subunit β5 IC50 values were determined in situ in RPMI 8226 cells (FIG. 3). In close agreement with prior measurement of β5 IC50 for natural 1 and 2 in purified yeast proteasome,^8 in our hands the additional branching methyl in 1 indeed leads to ca. 5-fold improved IC50 compared to 2 in RPMI 8226 cells. […] Likewise, saturation of the fatty acid fragment in 39 causes ca. 14-fold decrease in β5 inhibition. This preliminary series of analogs highlighted that the macrocyclic hydroxylation, fatty acid unsaturation, and terminal lipid functionality are critical for potent proteasome inhibitory activity.
Cellular assays were performed with human multiple myeloma cell line RPMI 8226. First, relative inhibition of proteasome subunits β5 and β2 for all analogs and the natural product was measured at 30 nM compound concentration. Following incubation of the analogs in cell culture for 6 hours, cells were lysed and fluorogenic subunit-specific peptide substrates Suc-LLVY-AMC (β5) or Ac-RLR-AMC (β2) were incubated with the lysates, and fluorescence readings provided relative proteasome activity levels with respect to DMSO (FIG. 6A). Next, cytotoxicity screening was performed at 30 nM and 100 nM concentrations for better coverage of dynamic range (FIG. 6B). […] Therefore, the improved cytotoxicity of phenyl cepafungin 50 likely results from a more pronounced loss of β5 function in RPMI 8226 cells. This drastic increase in proteasome inhibition may be due to pi-stacking of the lipid tail phenyl ring with the β6 subunit residues Tyr106 and/or Tyr5. The β2 subunit-bound natural product has residues Tyr102 and Phe103 on the adjacent β3 subunit oriented further away from the terminal lipid methyl groups, and presumably would not facilitate pi-stacking to the extent possible at the adjacent β6 subunit (see FIG. 4, FIG. 9). […]
RPMI 8226 cells were seeded in a 6-well plate (1,000,000 cells/well) in cell culture media supplemented with indicated compounds (1,000× stock in DMSO) or DMSO and cultured for 6 hours. […] The plates were incubated at 37° C. for one hour and fluorescence was read at A360ex/A460em. […]

For series [2], the system named is RPMI 8226 cells. The series can be described thus: RPMI8226 cytotoxicity screening (WST-1). It counts as cell-based, human. The note with it: for cytotoxicity / activity compared with the natural product, in words: 30 nM and 100 nM compound concentration; for potency compared with parent natural product 1 in screening (FIG. 6A, 6B): 30 nM and 100 nM, cytotoxicities track with proteasome inhibition at 30 nM. How it is done:
Cellular assays were performed with human multiple myeloma cell line RPMI 8226. First, relative inhibition of proteasome subunits β5 and β2 for all analogs and the natural product was measured at 30 nM compound concentration. Following incubation of the analogs in cell culture for 6 hours, cells were lysed and fluorogenic subunit-specific peptide substrates Suc-LLVY-AMC (β5) or Ac-RLR-AMC (β2) were incubated with the lysates, and fluorescence readings provided relative proteasome activity levels with respect to DMSO (FIG. 6A). Next, cytotoxicity screening was performed at 30 nM and 100 nM concentrations for better coverage of dynamic range (FIG. 6B). […] Therefore, the improved cytotoxicity of phenyl cepafungin 50 likely results from a more pronounced loss of β5 function in RPMI 8226 cells. This drastic increase in proteasome inhibition may be due to pi-stacking of the lipid tail phenyl ring with the β6 subunit residues Tyr106 and/or Tyr5. The β2 subunit-bound natural product has residues Tyr102 and Phe103 on the adjacent β3 subunit oriented further away from the terminal lipid methyl groups, and presumably would not facilitate pi-stacking to the extent possible at the adjacent β6 subunit (see FIG. 4, FIG. 9). […] These combined modifications were made in hopes that the effects of both substitutions would be additive.
[…] Toxicity was determined using the WST-1 assay (Roche) according to the protocol of the manufacturer. (n=3)
For orientation: Formazan colour is commonly taken as a measure of viable cells.

`CC(C)[C@H]1/C=C/C(=O)NCC[C@H](O)C[C@H](NC(=O)[C@@H](NC(=O)/C=C/C=C/CCCCCc2ccccc2)[C@@H](C)O)C(=O)N1` [S39, (2E,4E)-N-((2S,3R)-3-hydroxy-1-(((5S,8S,10S,E)-10-hydroxy-5-isopropyl-2,7-dioxo-1,6-diazacyclododec-3-en-8-yl)amino)-1-oxobutan-2-yl)-10-phenyldeca-2,4-dienamide]: in the series with RPMI 8226 cells [1] (Homo sapiens, WST-1), the EC50 stood at 4.5 nM. Further, the “cytotoxicity EC50 compared with natural product and 50, in words” value in the series with RPMI 8226 cells [1] is listed as “significantly more potent than the natural product; also recorded: its cytotoxicity did not surpass that of 50”.

`CC(C)CCCCC/C=C/C=C/C(=O)N[C@H](C(=O)N[C@H]1CCCCNC(=O)/C=C/[C@H](C)NC1=O)[C@@H](C)O` [compound 38, Desoxycepafungin]: on proteasome subunit β5, the “fold higher IC50 than 1” value is listed as “ca. 11 fold”. Consider `CC(C)CCCCC/C=C/C=C/C(=O)N[C@H](C(=O)N[C@H]1C[C@H](O)CCNC(=O)/C=C/[C@H](C)NC1=O)[C@@H](C)O` [compound 40, (2E,4E)-N-((2S,3R)-3-hydroxy-1-(((5S,8S,10R,E)-10-hydroxy-5-methyl-2,7-dioxo-1,6-diazacyclododec-3-en-8-yl)amino)-1-oxobutan-2-yl)-11-methyldodeca-2,4-dienamide], for which, in the series with RPMI 8226 cells [2], the “cytotoxicity / activity compared with the natural product, in words” value was “nearly inactive at both concentrations”. On to `CC(C)CCCCC/C=C/C=C/C(=O)N[C@H](C(=O)N[C@@H]1C(=O)N[C@@H](C)/C=C/C(=O)NCCC[C@@H]1O)[C@@H](C)O` [compound 41, (2E,4E)-N-((2S,3R)-3-hydroxy-1-(((5S,8S,9S,E)-9-hydroxy-5-methyl-2,7-dioxo-1,6-diazacyclododec-3-en-8-yl)amino)-1-oxobutan-2-yl)-11-methyldodeca-2,4-dienamide], for which the “cytotoxicity / activity compared with the natural product, in words” value in the series with RPMI 8226 cells [2] was “nearly inactive at both concentrations”. Consider `CC(C)CCCCC/C=C/C=C/C(=O)N[C@H](C(=O)N[C@H]1CC(=O)CCNC(=O)/C=C/[C@H](C)NC1=O)[C@@H](C)O` [compound 42, (2E,4E)-N-((2S,3R)-3-hydroxy-1-(((5S,8S,E)-5-methyl-2,7,10-trioxo-1,6-diazacyclododec-3-en-8-yl)amino)-1-oxobutan-2-yl)-11-methyldodeca-2,4-dienamide], for which the “cytotoxicity / activity compared with the natural product, in words” value in the series with RPMI 8226 cells [2] is “potency approaching that of the natural product”. With `CC(C)CCCCC/C=C/C=C/C(=O)N[C@H](C(=O)N[C@H]1C[C@@H](O)CCNC(=O)/C=C/[C@H](C(C)C)NC1=O)[C@@H](C)O` [compound 43, (2E,4E)-N-((2S,3R)-3-hydroxy-1-(((5S,8S,10S,E)-10-hydroxy-5-isopropyl-2,7-dioxo-1,6-diazacyclododec-3-en-8-yl)amino)-1-oxobutan-2-yl)-11-methyldodeca-2,4-dienamide], in the series on RPMI 8226 cells [2], the “cytotoxicity / activity compared with the natural product, in words” value was “slightly greater cytotoxicity than the natural product” and the “potency compared with parent natural product 1 in screening (FIG. 6A, 6B)” value is recorded as “more potent than the parent natural product 1”. `CC[C@H](NC(=O)/C=C/C=C/CCCCCC(C)C)C(=O)N[C@H]1C[C@@H](O)CCNC(=O)/C=C/[C@H](C)NC1=O` [compound 44, (2E,4E)-N—((S)-1-(((5S,8S,10S,E)-10-hydroxy-5-methyl-2,7-dioxo-1,6-diazacyclododec-3-en-8-yl)amino)-1-oxobutan-2-yl)-11-methyldodeca-2,4-dienamide]: in the series on RPMI 8226 cells [2], the “cytotoxicity / activity compared with the natural product, in words” value was “Thr residue next to the cepafungin macrocycle appears to be favored over the ethyl sidechain of desoxy-Thr analog 44”. For the compound `CC(C)CCCCC/C=C/C=C/C(=O)N[C@H](C(=O)N[C@H]1C[C@@H](O)CCNC(=O)/C=C/[C@H](C)NC1=O)[C@H](O)c1ccccc1` [compound 45, (2E,4E)-N-((1R,2S)-1-hydroxy-3-(((5S,8S,10S,E)-10-hydroxy-5-methyl-2,7-dioxo-1,6-diazacyclododec-3-en-8-yl)amino)-3-oxo-1-phenylpropan-2-yl)-11-methyldodeca-2,4-dienamide], in the series with RPMI 8226 cells [2], the “cytotoxicity / activity compared with the natural product, in words” value is “substantially weaker”.

Take `CC(C)CCCCC/C=C/C=C/C(=O)N[C@H](C(=O)N[C@H]1C[C@@H](O)CCNC(=O)/C=C/[C@H](C)NC1=O)[C@H](O)C(C)C` [compound 46, (2E,4E)-N-((2S,3R)-3-hydroxy-1-(((5S,8S,10S,E)-10-hydroxy-5-methyl-2,7-dioxo-1,6-diazacyclododec-3-en-8-yl)amino)-4-methyl-1-oxopentan-2-yl)-11-methyldodeca-2,4-dienamide]: in the series on RPMI 8226 cells [2], the “cytotoxicity / activity compared with the natural product, in words” value is given as “approached the potency of the natural product”. Consider `C[C@H]1/C=C/C(=O)NCC[C@H](O)C[C@H](NC(=O)[C@@H](NC(=O)/C=C/C=C/CCCCCC(C)(C)C)[C@@H](C)O)C(=O)N1` [compound 47, (2E,4E)-N-((2S,3R)-3-hydroxy-1-(((5S,8S,10S,E)-10-hydroxy-5-methyl-2,7-dioxo-1,6-diazacyclododec-3-en-8-yl)amino)-1-oxobutan-2-yl)-11,11-dimethyldodeca-2,4-dienamide], for which, in the series on RPMI 8226 cells [2], the “cytotoxicity / activity compared with the natural product, in words” value is recorded as “improved cytotoxicity relative to 1” and the “potency compared with parent natural product 1 in screening (FIG. 6A, 6B)” value was “more potent than the parent natural product 1”. In the case of `C[C@H]1/C=C/C(=O)NCC[C@H](O)C[C@H](NC(=O)[C@@H](NC(=O)/C=C/C=C/CCCCCC2CCCC2)[C@@H](C)O)C(=O)N1` [compound 48, (2E,4E)-10-cyclopentyl-N-((2S,3R)-3-hydroxy-1-(((5S,8S,10S,E)-10-hydroxy-5-methyl-2,7-dioxo-1,6-diazacyclododec-3-en-8-yl)amino)-1-oxobutan-2-yl)deca-2,4-dienamide], in the series on RPMI 8226 cells [2], the “cytotoxicity / activity compared with the natural product, in words” value is listed as “improved cytotoxicity relative to 1” and the “potency compared with parent natural product 1 in screening (FIG. 6A, 6B)” value is listed as “more potent than the parent natural product 1”. Take `C[C@H]1/C=C/C(=O)NCC[C@H](O)C[C@H](NC(=O)[C@@H](NC(=O)/C=C/C=C/CCCCCC2CCCCC2)[C@@H](C)O)C(=O)N1` [compound 49, (2E,4E)-10-cyclohexyl-N-((2S,3R)-3-hydroxy-1-(((5S,8S,10S,E)-10-hydroxy-5-methyl-2,7-dioxo-1,6-diazacyclododec-3-en-8-yl)amino)-1-oxobutan-2-yl)deca-2,4-dienamide]: in the series with RPMI 8226 cells [2], the “cytotoxicity / activity compared with the natural product, in words” value is recorded as “roughly similar activity as the natural product”. For `C[C@H]1/C=C/C(=O)NCC[C@H](O)C[C@H](NC(=O)[C@@H](NC(=O)/C=C/C=C/CCCCCC(F)(F)F)[C@@H](C)O)C(=O)N1` [compound 51, (2E,4E)-11,11,11-trifluoro-N-((2S,3R)-3-hydroxy-1-(((5S,8S,10S,E)-10-hydroxy-5-methyl-2,7-dioxo-1,6-diazacyclododec-3-en-8-yl)amino)-1-oxobutan-2-yl)undeca-2,4-dienamide], the “cytotoxicity / activity compared with the natural product, in words” value in the series on RPMI 8226 cells [2] is “essentially inactive at both concentrations tested”.

In general, EC50 refers to the concentration needed to bring the measured effect to its halfway point.
